From paper PMC9301657 (Journal of biochemical and molecular toxicology, 2010)
Structures can show the parent of a compound that is named as a salt.

Columns and labels:
[1] = molecular target: T1, r-SgAChE1 (Schizaphis graminum acetylcholinesterase-1) (Schizaphis graminum, UniProt Q9BMJ1); experiment: Determination of IC50 for inhibition of purified r-SgAChE1; type: biochemical; details: room temperature
[2] = tested on: SgAChE purified from the greenbug; details: read-out: IC50 against SgAChE; native SgAChE; cited from earlier work
[3] = molecular target: T1, r-SgAChE1 (Schizaphis graminum acetylcholinesterase-1); experiment: Inhibitory kinetic constants; type: biochemical; details: for k2 (unimolecular rate constant) / ki / ki (bimolecular reaction constant) / ki (bimolecular reaction constant, k2/Kd): ATC substrate, room temperature
[4] = molecular target: T1, r-SgAChE1 (Schizaphis graminum acetylcholinesterase-1); type: biochemical
[5] = molecular target: T1, r-SgAChE1 (Schizaphis graminum acetylcholinesterase-1); experiment: Kinetics of substrate hydrolysis; type: biochemical; details: for KM of r-SgAChE1 relative to SgAChE purified from the greenbug / Vmax of r-SgAChE1 relative to SgAChE purified from the greenbug: comparison with ref 13; for Km: read-out: KM (Michaelis constant); for Km / Vmax (maximum velocity) / Vmax: room temperature; for Km / Vmax: pH 7.0; for kcat × 10^−3 (turnover rate): values × 10^−3, calculated from molecular mass 64,597 Da and Vmax
[6] = tested on: SgAChE purified from the greenbug; details: read-out: KM toward SgAChE; native SgAChE; cited from earlier work

T1 sequence (Q9BMJ1 98-659): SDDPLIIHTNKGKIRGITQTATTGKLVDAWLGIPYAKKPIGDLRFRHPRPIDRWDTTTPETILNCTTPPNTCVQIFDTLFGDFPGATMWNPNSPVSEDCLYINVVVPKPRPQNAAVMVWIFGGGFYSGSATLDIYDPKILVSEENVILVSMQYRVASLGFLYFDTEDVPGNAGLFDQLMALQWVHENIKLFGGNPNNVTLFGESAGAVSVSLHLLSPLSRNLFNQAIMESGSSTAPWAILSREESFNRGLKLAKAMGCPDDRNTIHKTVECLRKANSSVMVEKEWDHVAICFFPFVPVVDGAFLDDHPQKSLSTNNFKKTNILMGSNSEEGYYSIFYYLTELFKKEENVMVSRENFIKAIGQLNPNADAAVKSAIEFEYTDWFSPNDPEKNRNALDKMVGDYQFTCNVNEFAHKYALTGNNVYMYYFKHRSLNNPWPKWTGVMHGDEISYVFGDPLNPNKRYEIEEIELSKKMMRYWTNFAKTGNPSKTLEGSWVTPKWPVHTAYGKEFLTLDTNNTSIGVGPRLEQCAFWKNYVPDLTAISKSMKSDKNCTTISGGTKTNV

SMILES | k2 (unimolecular rate constant) [3] [min⁻¹] | ki [3] [M⁻¹ s⁻¹] | KM of r-SgAChE1 relative to SgAChE purified from the greenbug [5] [fold] | Vmax of r-SgAChE1 relative to SgAChE purified from the greenbug [5] [fold] | Km [5] [µM] | Vmax (maximum velocity) [5] [U/mg] | Vmax [5] [U/mg Protein] | other results
C=CC[N+](C)(C)c1ccc(CCC(=O)CCc2ccc([N+](C)(C)CC=C)cc2)cc1 [BW284C51, 1,5-bis(4-allyldimethylammoniumphenyl)-pentan-3-one dibromide] | – | – | – | – | – | – | – | IC50 ([1]; 5 min incubation): 1660 ± 2 nM; IC50 [2]: 140 nM
CCOC(=O)CC(SP(=O)(OC)OC)C(=O)OCC (stereo not drawn) [Malaoxon, malaoxon] | 1.59 ± 0.02 | 7830 ± 217 | – | – | – | – | – | IC50 ([1]; IC50, 5 min incubation): 61 nM; Kd [3]: 3400 ± 100 nM; k2 (unimolecular rate constant) ([3]; listed as malaoxon): 1.59 min⁻¹
CC(=O)SCC[N+](C)(C)C.[I-] [ATC, Acetylthiocholine iodide] | – | – | 1.53 | 1.7 | 88.3 ± 9.6 | 133.2 ± 1.6 | 133.2 ± 1.6 | ATC concentration above which enzymatic activity is inhibited ([4]; substrate inhibition): above 10 mM; kcat × 10^−3 (turnover rate) [5]: 8.60 ± 0.11 min^−1
CC(=O)SC(C)C[N+](C)(C)C.[I-] (stereo not drawn) [AβMTC, acetyl(β-methyl)thiocholine iodide] | – | – | 1.88 | 1.6 | 114 ± 12.5 | 106.4 ± 3.0 | 106.4 ± 3.0 | kcat × 10^−3 (turnover rate) [5]: 6.88 ± 0.20 min^−1
CCCC(=O)SCC[N+](C)(C)C.[I-] [BTC, S-butyrylthiocholine iodide] | – | – | 6.02 | 1.9 | 201 ± 21 | 4.4 ± 0.1 | 4.4 ± 0.1 | –
CCN(CC)C(C)CN1c2ccccc2Sc2ccccc21 (stereo not drawn) [Ethopropazine, ethopropazine hydrochloride] | – | – | – | – | – | – | – | IC50 ([1]; IC50, 5 min incubation): 102000 nM
CNC(=O)Oc1cccc2ccccc12 [Carbaryl, carbaryl] | 0.99 ± 0.01 | 1080 ± 67 | – | – | – | – | – | IC50 ([1]; IC50, 5 min incubation): 940 ± 5 nM; Kd [3]: 15600 ± 2900 nM
CNC(=O)Oc1ccc2c(c1)[C@]1(C)CCN(C)[C@@H]1N2C.CNC(=O)Oc1ccc2c(c1)[C@]1(C)CCN(C)[C@@H]1N2C.O=S(=O)(O)O [Eserine, eserine hemisulfate] | 1.58 ± 0.04 | 1670 ± 267 | – | – | – | – | – | IC50 ([1]; 5 min incubation): 199 ± 4 nM; IC50 ([1]; 5 min incubation, listed as eserine): 200 nM; ki (bimolecular reaction constant) [3]: 1.00 ± 0.16 × 10^5 M^−1 min^−1; ki (bimolecular reaction constant, k2/Kd) [3]: 1.00 ± 0.16 ×10^−5 M^−1 min^−1; ki (bimolecular reaction constant) ([3]; listed as eserine): (1.00 ± 0.16) × 10^5 M^−1 min^−1; IC50 [2]: 480 nM
CCC(=O)SCC[N+](C)(C)C.[I-] [PTC, propionylthio-choline iodide] | – | – | 2.20 | 2.0 | 68.9 ± 7.8 | 76.7 ± 1.0 | 76.7 ± 1.0 | Km [6]: 31.3 ± 3.7 µM; kcat × 10^−3 (turnover rate) [5]: 4.95 ± 0.07 min^−1
CC(=O)O [acetate] | – | – | – | – | – | – | – | influence on hydrolytic activity ([4]; range from 1 μM to 100 mM): not much influenced
CCOP(=O)(OCC)Oc1ccc([N+](=O)[O-])cc1 [Paraoxon] | 2.76 ± 0.25 | 15100 ± 383 | – | – | – | – | – | ki (bimolecular reaction constant, k2/Kd) [3]: 9.06 ± 0.23 ×10^−5 M^−1 min^−1; k2 (unimolecular rate constant) ([3]; listed as paraoxon): 2.76 min⁻¹
C[N+](C)(C)CCO [choline, choline chloride] | – | – | – | – | – | – | – | choline concentration above which the enzyme is inhibited [4]: higher than 20 mM
